Laboratory results as given in patent publication US9029414B2, “Triterpenoid compounds and methods of use thereof” (Biotechnology Research Corporation, priority 2008, dated 2015).

Tested on: C/EBP-b and c-fos expression in cortical neurons
Assay: C/EBP-b and c-fos mRNA (real-time PCR) in cortical neurons
Format: cell-based
Conditions: vs DMSO
Experimental: FIG. 4. DA001 induces CEBPb mRNA in cortical neurons. Cortical neurons were incubated with DA001 or the DMSO control for 3 different time intervals. Gene expression was normalized against the house-keeping gene, hypoxanthine phosphoribosyltransferase 1 (HPRT1) and glyceraldehyde 3-phosphate dehydrogenase (GAPDH) and compared to the control (DMSO) treatment. Relative change in gene expression induced by DA001 was compared with DMSO. Asterisk represents P<0.05.
Cortical neurons of 11 DIV-12 DIV were pre-incubated with DA001 or DMSO for 24 hours. Cells were washed in Locke's medium without magnesium for 15 min, followed by the treatment of NMDA (20 μM) or water for 20 min. Neurons were incubated with normal growth medium and total RNA were extracted at different time intervals after or without NMDA treatment. Total RNA was extracted using RNeasy Mini kit (Qiagen) according to the manufacturer's protocol, and was reverse-transcribed into single-stranded cDNA with SuperScript II Reverse Transcriptase (Invitrogen) and oligo-dT primers. Real-time Quantitative PCR was performed using Power SYBR Green PCR Master Mix (Applied Biosystems) on the Mx3000P Real-Time PCR System (Stratagene). […]
Cortical neurons were treated with DA001 at different time intervals. The expression of CCAAT/enhancer binding protein beta (C/EBP-b) and c-fos was measured at three different time intervals by real-time PCR. […]

## C=C(C)[C@@H]1CC[C@]2(C(=O)O)CC[C@]3(C)C(CC[C@@H]4[C@@]5(C)CC[C@H](O[C@@H]6OC[C@H](O)[C@H](O)[C@H]6O[C@@H]6O[C@@H](C)[C@H](O)[C@@H](O)[C@H]6O)[C@@](C)(CO)[C@@H]5CC[C@]43C)[C@@H]12 (stereo partly drawn) [DA001, 3-O-[α-L-rhamnopyranosyl-(1→2)-α-L-arabinopyranosyl]-3,23-dihydroxy-20(29)-lupen-28-oic acid]
After a 2-day treatment
  C/EBP-b expression (mRNA): induced C/EBP-b expression
Similar conditions
  c-fos expression (mRNA): did not affect expression of c-fos
